Read-outs that look alike come from different tables or passages of the source.
Tests used:
[1] = tested on: colon cancer xenografts; details: dose levels that were well tolerated; cited from earlier work
[2] = tested on: thirteen human xenograft lines, including colon, lung, breast, stomach, ovary, and malignant melanoma; details: 20% interlipid formulation, intramuscularly and orally, non-toxic doses; cited from earlier work
[3] = tested on: 833 K human teratocarcinoma cells; test: Cytotoxicity, 833 K cells; type: cell-based; details: read-out: IC50 (833 K human teratocarcinoma cells)
Description: Cytotoxicity and Topoisomerase I-mediated effect studies of compounds 22d and (20S)-camptothecin were performed at the Laboratory for Bioorganic Chemistry, Memorial Sloan-Kettering Institute Cancer Center, New York with the following results: […]

[4] = target: T1, Topoisomerase I (Homo sapiens, UniProt P11387); test: Inhibition of Topoisomerase I-mediated relaxation of supercoiled DNA; type: biochemical; details: 22d compared with CPT
T1 construct: supercoiled DNA relaxation and DNA cleavage assays
T1 sequence (P11387 2-765): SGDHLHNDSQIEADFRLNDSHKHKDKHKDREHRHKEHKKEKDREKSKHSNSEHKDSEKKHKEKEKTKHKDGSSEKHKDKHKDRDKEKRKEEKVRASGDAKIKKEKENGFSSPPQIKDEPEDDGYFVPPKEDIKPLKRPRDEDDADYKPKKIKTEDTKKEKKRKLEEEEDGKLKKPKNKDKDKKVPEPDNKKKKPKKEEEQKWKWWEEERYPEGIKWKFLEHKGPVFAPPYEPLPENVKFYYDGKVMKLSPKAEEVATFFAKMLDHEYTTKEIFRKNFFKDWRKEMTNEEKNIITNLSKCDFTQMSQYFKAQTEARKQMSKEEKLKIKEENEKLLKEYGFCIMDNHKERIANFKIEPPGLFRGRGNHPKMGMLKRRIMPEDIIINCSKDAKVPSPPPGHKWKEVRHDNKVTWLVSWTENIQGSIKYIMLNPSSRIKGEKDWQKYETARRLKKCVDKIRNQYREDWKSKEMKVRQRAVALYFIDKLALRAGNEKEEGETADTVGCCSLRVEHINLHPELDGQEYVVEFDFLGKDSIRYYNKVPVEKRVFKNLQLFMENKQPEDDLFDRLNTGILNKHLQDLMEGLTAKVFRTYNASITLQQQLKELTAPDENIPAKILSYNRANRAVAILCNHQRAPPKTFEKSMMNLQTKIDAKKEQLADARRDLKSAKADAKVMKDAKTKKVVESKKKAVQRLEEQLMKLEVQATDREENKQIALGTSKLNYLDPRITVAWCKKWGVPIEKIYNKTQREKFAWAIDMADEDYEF

[5] = target: T1, Topoisomerase I; test: Induction of Topoisomerase I-mediated DNA cleavage; type: biochemical; details: 22d compared with CPT
[6] = tested on: HL-60 human promyelocytic leukemic cells; test: Cytotoxicity, HL-60 cells; type: cell-based
Description: Cytotoxicity and Topoisomerase I-mediated effect studies of compounds 22d and (20S)-camptothecin were performed at the Laboratory for Bioorganic Chemistry, Memorial Sloan-Kettering Institute Cancer Center, New York with the following results:
1. IC50 (HL-60 human promyelocytic leukemic cells, μmol): 0.004 (22d); 0.004 (CPT).

## CCC1(O)C(=O)OCc2c1cc1n(c2=O)Cc2cc3c(N)cccc3nc2-1 (racemic) [Racemic 9-aminocamptothecin, 9-aminocamptothecin]
[1]
  efficacy in mice carrying colon cancer xenografts: very effective

## CC[C@@]1(O)C(=O)OCc2c1cc1n(c2=O)Cc2cc3ccccc3nc2-1 [CPT, (20S)-camptothecin]
[2]
  effect on growth of human xenograft lines: suppressed growth and induced regression of cancer in thirteen human xenograft lines
[3]; 833K
  IC50: 5.5 nM
[4]
  potency in the inhibition of Topoisomerase I-mediated relaxation of supercoiled DNA: Same potency
[5]
  potency in the induction of Topoisomerase I-mediated DNA cleavage: Same potency
[6]; HL-60, read-out: IC50 (HL-60 human promyelocytic leukemic cells)
  IC50: 4 nM

## CC[C@@]1(O)C(=O)OCc2c1cc1n(c2=O)Cc2c-1nc1ccccc1c2[Si](C)(C)C [Compound 22d, (20S)-7-Trimethylsilylcamptothecin]
[3]; 833 K cells, cytotoxicity
  IC50: 4.4 nM
[4]
  potency in the inhibition of Topoisomerase I-mediated relaxation of supercoiled DNA: Same potency
[5]
  potency in the induction of Topoisomerase I-mediated DNA cleavage: Same potency
[6]; HL-60 cells, cytotoxicity, read-out: IC50 (HL-60 human promyelocytic leukemic cells)
  IC50: 4 nM

Source: US6252079A, “Intermediates in the synthesis of camptothecin and related compounds and synthesis thereof” (University of Pittsburgh, priority 1997, dated 2001)
